Experimental data: ChEMBL document CHEMBL1201862, “PubChem BioAssay data set” (2004)
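Dose response: 5 concentrations. Exposure: 48 h. Format: 96-well plates. Endpoint: linear interpolation; highest concentration if not reached. Abbreviation: GI50, concentration required for 50% inhibition of growth.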 Calls of active or inactive are those of the source. No stated cut-off is given here; in the data, active = GI50 up to about 1.1 µM and inactive = higher.

Experiments:
Assay in all cases: NCI anticancer screen, dose series, 48 h
SK-MEL-5 = test system: SK-MEL-5
UACC-257 = test system: UACC-257
SK-MEL-2 = test system: SK-MEL-2
HOP-92 = test system: HOP-92
NCI-H23 = test system: NCI-H23
KM12 = test system: KM12
PC-3 = test system: PC-3
ACHN = test system: ACHN
TK-10 = test system: TK-10
UACC-62 = test system: UACC-62
SF-268 = test system: SF-268
SN12C = test system: SN12C
BT-549 = test system: BT-549
NCI-H522 = test system: NCI-H522
HL-60 = test system: HL-60
IGROV-1 = test system: IGROV-1
T47D = test system: T47D
HCC 2998 = test system: HCC 2998
Malme-3M = test system: Malme-3M
MDA-N = test system: MDA-N

Row | SMILES | GI50 (SK-MEL-5) | GI50 (UACC-257) | GI50 (SK-MEL-2) | GI50 (HOP-92) | GI50 (NCI-H23) | GI50 (KM12) | GI50 (PC-3) | GI50 (ACHN) | GI50 (TK-10) | GI50 (UACC-62) | GI50 (SF-268) | GI50 (SN12C) | GI50 (BT-549) | GI50 (NCI-H522) | GI50 (HL-60) | GI50 (IGROV-1) | GI50 (T47D) | GI50 (HCC 2998) | GI50 (Malme-3M) | GI50 (MDA-N)
1 | N#Cc1c(N)[nH]c2ccc(Sc3ccccc3)cc12 | 0.145 µM (active) | 12.8 µM (inactive) | 0.338 µM (active) | 1.78 µM (inactive) | 0.323 µM (active) | 0.113 µM (active) | 0.275 µM (active) | 0.284 µM (active) | 1.8 µM (inactive) | 0.133 µM (active) | 0.248 µM (active) | 0.574 µM (active) | 1.16 µM (inactive) | 0.112 µM (active) | 0.0333 µM (active) | 0.198 µM (active) | 0.622 µM (active) | 0.516 µM (active) | – | –
2 | CN(CCc1ccccn1)c1nc(=[N+](C)C)ss1 | > 100 µM (inactive) | > 100 µM (inactive) | > 100 µM (inactive) | > 100 µM (inactive) | > 100 µM (inactive) | 28.1 µM (inactive) | – | > 100 µM (inactive) | > 100 µM (inactive) | 64.1 µM (inactive) | > 100 µM (inactive) | > 100 µM (inactive) | – | 8.02 µM (inactive) | > 100 µM (inactive) | > 100 µM (inactive) | – | > 100 µM (inactive) | > 100 µM (inactive) | –
3 | CNC(=O)OCc1c(COC(=O)NC)c(C)n(-c2ccc(Br)cc2)c1C | 13.6 µM (inactive) | 15.3 µM (inactive) | 15.5 µM (inactive) | 7.76 µM (inactive) | 14.3 µM (inactive) | 14.4 µM (inactive) | 17.2 µM (inactive) | 3.26 µM (inactive) | 11 µM (inactive) | 4.89 µM (inactive) | 10.7 µM (inactive) | 9.16 µM (inactive) | – | 10.2 µM (inactive) | 6.25 µM (inactive) | 3.98 µM (inactive) | 10.2 µM (inactive) | 15.2 µM (inactive) | 17.6 µM (inactive) | 15.7 µM (inactive)
4 | COC(=O)C1=C(C(=O)Nc2cccnc2Cl)N(c2ccc(OC)cc2[N+](=O)[O-])C(c2ccc(C)cc2)=CC1c1ccc(OC)cc1OC (stereo unspecified) | 10 µM (inactive) | 25.8 µM (inactive) | 17.9 µM (inactive) | 31.1 µM (inactive) | 22.1 µM (inactive) | 2.92 µM (inactive) | 27.5 µM (inactive) | 19.1 µM (inactive) | 20.7 µM (inactive) | 24.3 µM (inactive) | 24.6 µM (inactive) | 15.4 µM (inactive) | 8.85 µM (inactive) | 2.59 µM (inactive) | 4.61 µM (inactive) | 5.94 µM (inactive) | 10 µM (inactive) | 8.61 µM (inactive) | 12.6 µM (inactive) | –
5 | O=c1c2cc([N+](=O)[O-])ccc2n2n1Cc1ccccc1CC2 | > 100 µM (inactive) | > 100 µM (inactive) | > 100 µM (inactive) | – | > 100 µM (inactive) | > 100 µM (inactive) | > 100 µM (inactive) | > 100 µM (inactive) | 38.1 µM (inactive) | > 100 µM (inactive) | > 100 µM (inactive) | > 100 µM (inactive) | > 100 µM (inactive) | > 100 µM (inactive) | > 100 µM (inactive) | > 100 µM (inactive) | – | > 100 µM (inactive) | > 100 µM (inactive) | > 100 µM (inactive)
6 | CCOC(=O)CCC(NC(=O)OCc1ccccc1)C(=O)NC(CCC(=O)OCC)C(=O)NC(CCC(=O)OCC)C(=O)NNC(=O)OC(C)(C)C (stereo unspecified) | > 100 µM (inactive) | > 100 µM (inactive) | > 100 µM (inactive) | > 100 µM (inactive) | > 100 µM (inactive) | > 10 µM (inactive) | > 100 µM (inactive) | > 100 µM (inactive) | > 100 µM (inactive) | > 100 µM (inactive) | – | > 100 µM (inactive) | > 100 µM (inactive) | – | > 100 µM (inactive) | > 100 µM (inactive) | – | > 100 µM (inactive) | > 100 µM (inactive) | > 100 µM (inactive)
7 | CN(C)CCC[N+]1=Nc2cccc3cccc(c23)N1 | 14.1 µM (inactive) | 48.5 µM (inactive) | > 100 µM (inactive) | 66.7 µM (inactive) | > 100 µM (inactive) | > 100 µM (inactive) | – | 50.7 µM (inactive) | 59.4 µM (inactive) | 34.1 µM (inactive) | > 100 µM (inactive) | 85.1 µM (inactive) | – | 38 µM (inactive) | 18.2 µM (inactive) | 31.4 µM (inactive) | – | 24.2 µM (inactive) | > 100 µM (inactive) | –
8 | C/C(=C\CO)CC/C=C(\C)CNc1c(F)c(F)c(F)c(F)c1F | 15.8 µM (inactive) | 21.3 µM (inactive) | 20.7 µM (inactive) | – | > 100 µM (inactive) | 27.5 µM (inactive) | 21.1 µM (inactive) | 43.2 µM (inactive) | 29.5 µM (inactive) | 17.2 µM (inactive) | 23.1 µM (inactive) | 20.2 µM (inactive) | 6.4 µM (inactive) | 18.4 µM (inactive) | 28.7 µM (inactive) | 49.5 µM (inactive) | 61.2 µM (inactive) | 24.7 µM (inactive) | 27.4 µM (inactive) | –
9 | COc1ccc2c(c1)CCN1CCCc3ccc(OC)cc3C21 (stereo unspecified) | 39.6 µM (inactive) | 73.8 µM (inactive) | 52.1 µM (inactive) | 63.8 µM (inactive) | 68.5 µM (inactive) | 60.4 µM (inactive) | 28.5 µM (inactive) | > 100 µM (inactive) | > 100 µM (inactive) | 57.3 µM (inactive) | 82.6 µM (inactive) | 50 µM (inactive) | 34 µM (inactive) | 32.3 µM (inactive) | – | 57.4 µM (inactive) | 50.6 µM (inactive) | 37.9 µM (inactive) | – | –
10 | O=C(CP(=O)(c1ccccc1)c1ccccc1)c1cccc(C(=O)CP(=O)(c2ccccc2)c2ccccc2)c1 | > 100 µM (inactive) | > 100 µM (inactive) | 49.9 µM (inactive) | – | – | > 100 µM (inactive) | > 100 µM (inactive) | > 100 µM (inactive) | 48.6 µM (inactive) | > 100 µM (inactive) | 30.2 µM (inactive) | > 100 µM (inactive) | – | – | > 100 µM (inactive) | 55.2 µM (inactive) | 76 µM (inactive) | > 100 µM (inactive) | – | –
11 | O=C(/C(=C\C(=O)c1cccs1)c1ccsc1)c1ccc(Br)cc1 | > 100 µM (inactive) | 42.8 µM (inactive) | > 100 µM (inactive) | – | 80.2 µM (inactive) | > 100 µM (inactive) | > 100 µM (inactive) | > 100 µM (inactive) | > 100 µM (inactive) | > 100 µM (inactive) | > 100 µM (inactive) | > 100 µM (inactive) | – | – | > 100 µM (inactive) | > 100 µM (inactive) | 18.6 µM (inactive) | > 100 µM (inactive) | 60.1 µM (inactive) | > 100 µM (inactive)
12 | O=C1CC2CC(CC3(CO3)C2)C1F (stereo unspecified) | > 100 µM (inactive) | > 100 µM (inactive) | > 100 µM (inactive) | 23 µM (inactive) | > 100 µM (inactive) | > 100 µM (inactive) | > 100 µM (inactive) | > 100 µM (inactive) | > 100 µM (inactive) | > 100 µM (inactive) | > 100 µM (inactive) | > 100 µM (inactive) | – | > 100 µM (inactive) | > 100 µM (inactive) | > 100 µM (inactive) | > 100 µM (inactive) | > 100 µM (inactive) | > 100 µM (inactive) | > 100 µM (inactive)
13 | C=CC1CN(C(=O)OCC)N(C(=O)OCC)C1CCc1ccccc1 (stereo unspecified) | 64.1 µM (inactive) | > 100 µM (inactive) | > 100 µM (inactive) | 53.5 µM (inactive) | 61.9 µM (inactive) | 71.6 µM (inactive) | 79.1 µM (inactive) | > 100 µM (inactive) | > 100 µM (inactive) | > 100 µM (inactive) | > 100 µM (inactive) | > 100 µM (inactive) | – | 39.3 µM (inactive) | 35.6 µM (inactive) | 81.8 µM (inactive) | 33.3 µM (inactive) | > 100 µM (inactive) | > 100 µM (inactive) | > 100 µM (inactive)
14 | COc1ccc(N2C(=O)C3c4[nH]c5ccc(OC)cc5c4C4CCC(C(C)(C)C)CC4C3C2=O)cc1 (stereo unspecified) | 21.1 µM (inactive) | 55.2 µM (inactive) | 17.5 µM (inactive) | 10.7 µM (inactive) | 19.1 µM (inactive) | 34.3 µM (inactive) | – | 28.5 µM (inactive) | 33.3 µM (inactive) | 27.2 µM (inactive) | 14.3 µM (inactive) | 38.2 µM (inactive) | – | 20.7 µM (inactive) | 43 µM (inactive) | 51.2 µM (inactive) | – | 45.3 µM (inactive) | 7.03 µM (inactive) | –
15 | Cc1cc(OCC(=O)N/N=C/C(Br)=C/c2ccccc2)nc(SCC(=O)N/N=C/C(Br)=C/c2ccccc2)n1 | > 100 µM (inactive) | > 100 µM (inactive) | – | 24.9 µM (inactive) | > 100 µM (inactive) | 39.9 µM (inactive) | 54.1 µM (inactive) | > 100 µM (inactive) | – | > 100 µM (inactive) | 48.2 µM (inactive) | > 100 µM (inactive) | > 100 µM (inactive) | 26.6 µM (inactive) | > 100 µM (inactive) | 52.2 µM (inactive) | – | 23 µM (inactive) | – | 49.4 µM (inactive)
16 | CC1=C(C(=O)NNC(=O)Cc2ccccc2)CC(C(=O)NNC(=O)Cc2ccccc2)=C(C)N1 | > 100 µM (inactive) | > 100 µM (inactive) | > 100 µM (inactive) | > 100 µM (inactive) | > 100 µM (inactive) | > 100 µM (inactive) | – | > 100 µM (inactive) | > 100 µM (inactive) | 35.4 µM (inactive) | > 100 µM (inactive) | > 100 µM (inactive) | > 100 µM (inactive) | – | 25.5 µM (inactive) | > 100 µM (inactive) | 54.8 µM (inactive) | > 100 µM (inactive) | – | > 100 µM (inactive)
